The target of one assay is LRRK2 G2019S (Homo sapiens (Human), UniProt Q5S007, G2019S). Kind of assay: LRRK2 G2019S kinase activity assay (LanthaScreen TR-FRET). The following applies: 250 pM LRRK2 G2019S kinase, 1.3 mM ATP, 0.4 μM fluorescein-LRRKtide. It is filed as biochemical. On the procedure: (§1) LRRK2 Wild-Type and G2019S Kinase Activity Assay.
(§2) LRRK2 kinase activity is measured using a LanthaScreen kinase activity assay available from Invitrogen (Life Technologies Corporation). […] The phosphorylated peptide is recognized by a terbium-labelled phospho-specific anti-LRRKtide antibody and, subsequently, the phosphorylated LRRKtide can be quantified by the extent of TR-FRET between the terbium donor and fluorescein acceptor.
(§3) The LRRK2 kinase is obtained from Invitrogen (Life Technologies Corporation) and comprises residue 970 to 2527 of the full length human wildtype LRRK2 kinase or a similar sequence with the G2019S mutation. As discussed above, this mutation increases the kinase activity relative to the wild type. The kinase reactions are performed in a […] volume in 384-well plates. The kinase reaction buffer consists of 50 mM Tris pH 8.5, 0.01% BRIJ-35, 10 mM MgCl2, 1 mM EGTA, and 2 mM DTT.
(§4) The reaction mixture (20 μl total volume) is incubated for 2 hours at 30° C. before the reaction is terminated by addition of 10 mM EDTA and 1 nM terbium-labelled anti-phospho-LRRKtide antibody (final volume […]). The mixture is further incubated for 30 minutes at RT. TR-FRET is measured by excitation of the terbium-donor with 340 nm light and subsequent (delay time 100 μs) measurement of terbium and fluorescein emission at 495 nm and 520 nm, respectively, over a time window of 1000 μs. The measurement is repeated 10 times for fluorescein and 10 times for terbium emission with a 2000 μs time window between repeats. TR-FRET measurements are performed on a […] plate. The TR-FRET signal is calculated as the emission-ratio at 520 nm over 495 nm.
(§5) Test compound potency (IC50) was estimated by nonlinear regression using the sigmoidal dose-response (variable slope) using Xlfit 4 (IDBS, Guildford, Surrey, UK, model 205). y=(A+((B−A)/(1+((C/x)^D)))) where y is the normalized TR-TRET ratio measurement for a given concentration of test compound, x is the concentration of test compound, A is the estimated efficacy (% inhibition) at infinite compound dilution, and B is the maximal efficacy (% inhibition). C is the IC50 value and D is the Hill slope coefficient. IC50 estimates were obtained from independent experiment and the logarithmic average was calculated.

A further assay concerns the target LRRK2 WT (Homo sapiens (Human), UniProt Q5S007). Kind of assay: LRRK2 wild-type kinase activity assay (LanthaScreen TR-FRET). It is filed as biochemical. The conditions noted are these: 1 nM LRRK2 WT kinase, 1.3 mM ATP, 0.4 μM fluorescein-LRRKtide. On the procedure:
as §1, §2, §3, §4, §5

Each structure is given as a SMILES string.

LRRK2 WT, sequence (Q5S007 970-2527): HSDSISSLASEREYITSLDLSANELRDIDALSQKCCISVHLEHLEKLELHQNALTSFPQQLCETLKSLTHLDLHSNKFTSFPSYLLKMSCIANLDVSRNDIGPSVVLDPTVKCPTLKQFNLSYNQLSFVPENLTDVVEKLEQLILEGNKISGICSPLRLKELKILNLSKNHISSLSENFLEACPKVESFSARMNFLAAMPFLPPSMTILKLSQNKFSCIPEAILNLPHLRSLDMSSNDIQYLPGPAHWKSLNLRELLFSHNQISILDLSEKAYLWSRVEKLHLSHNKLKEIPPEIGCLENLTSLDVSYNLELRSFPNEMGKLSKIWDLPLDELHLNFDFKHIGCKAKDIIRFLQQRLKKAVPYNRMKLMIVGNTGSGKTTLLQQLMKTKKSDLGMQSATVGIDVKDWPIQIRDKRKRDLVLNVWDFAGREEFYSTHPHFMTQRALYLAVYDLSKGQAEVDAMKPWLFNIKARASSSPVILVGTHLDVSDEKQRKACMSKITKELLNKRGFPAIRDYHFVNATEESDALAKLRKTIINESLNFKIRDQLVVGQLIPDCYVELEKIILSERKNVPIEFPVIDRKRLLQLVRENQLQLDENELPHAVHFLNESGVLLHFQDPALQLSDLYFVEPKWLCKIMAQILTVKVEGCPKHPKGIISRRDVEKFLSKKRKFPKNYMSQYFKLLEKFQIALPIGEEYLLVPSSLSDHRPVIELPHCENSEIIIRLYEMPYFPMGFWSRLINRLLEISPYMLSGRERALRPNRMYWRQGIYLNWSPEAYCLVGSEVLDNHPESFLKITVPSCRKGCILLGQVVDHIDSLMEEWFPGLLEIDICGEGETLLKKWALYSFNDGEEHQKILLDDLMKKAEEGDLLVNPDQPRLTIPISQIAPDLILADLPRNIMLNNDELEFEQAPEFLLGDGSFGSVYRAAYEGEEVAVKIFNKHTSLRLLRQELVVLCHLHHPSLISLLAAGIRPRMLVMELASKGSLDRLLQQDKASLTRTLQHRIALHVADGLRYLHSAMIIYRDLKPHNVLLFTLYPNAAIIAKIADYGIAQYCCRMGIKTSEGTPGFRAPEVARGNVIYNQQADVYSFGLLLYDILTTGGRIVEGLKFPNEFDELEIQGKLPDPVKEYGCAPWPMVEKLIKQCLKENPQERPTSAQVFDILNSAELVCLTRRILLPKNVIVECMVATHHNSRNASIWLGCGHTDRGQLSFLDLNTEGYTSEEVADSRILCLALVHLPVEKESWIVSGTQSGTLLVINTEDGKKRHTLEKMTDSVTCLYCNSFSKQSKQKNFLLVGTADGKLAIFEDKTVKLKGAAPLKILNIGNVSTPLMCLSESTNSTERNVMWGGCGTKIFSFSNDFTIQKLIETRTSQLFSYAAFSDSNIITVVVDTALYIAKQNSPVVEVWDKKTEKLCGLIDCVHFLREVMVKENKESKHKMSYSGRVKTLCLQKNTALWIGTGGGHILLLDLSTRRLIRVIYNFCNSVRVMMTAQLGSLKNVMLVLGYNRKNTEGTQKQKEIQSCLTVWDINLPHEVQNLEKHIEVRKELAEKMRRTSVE
LRRK2 G2019S, sequence (Q5S007 970-2527 G2019S): as the sequence (Q5S007 970-2527) above, with G1050S counted along it

For the molecule `CC(C)c1nnc(-c2cc(-c3ccc4[nH]ccc4c3)cnc2N)o1` [Example 1, 5-(1H-Indol-5-yl)-3-(5-isopropyl-[1,3,4]oxadiazol-2-yl)-pyridin-2-ylamine], the IC50 on LRRK2 G2019S was 910 nM.
Consider `Nc1ncc(-c2ccc3[nH]ccc3c2)cc1-c1nnc(C2CC2)o1` [Example 2, 3-(5-Cyclopropyl-[1,3,4]oxadiazol-2-yl)-5-(1H-indol-5-yl)-pyridin-2-ylamine], for which the half-maximal inhibitory concentration (IC50) at LRRK2 G2019S came out at 1000 nM; at LRRK2 WT it was 570 nM.
Consider `CN1CCc2cc(-c3cnc(N)c(-c4nnc(C5CC5)o4)c3)ccc21` [Example 3, 3-(5-Cyclopropyl-[1,3,4]oxadiazol-2-yl)-5-(1-methyl-2,3-dihydro-1H-indol-5-yl)-pyridin-2-ylamine], for which the results for the IC50 on LRRK2 G2019S and at LRRK2 WT were 710 nM and 970 nM, respectively.
For `Cc1ccc(-c2cnc(N)c(-c3nnc(C4CCN(C)CC4)o3)c2)cc1` [Example 4, 3-[5-(1-Methyl-piperidin-4-yl)-[1,3,4]oxadiazol-2-yl]-5-p-tolyl-pyridin-2-ylamine], in that order: 860 nM and 3600 nM.
On to `CN1CCc2cc(-c3cnc(N)c(-c4nnc(C5CCNCC5)o4)c3)ccc21` [Example 5, 5-(1-Methyl-2,3-dihydro-1H-indol-5-yl)-3-(5-piperidin-4-yl-[1,3,4]oxadiazol-2-yl)-pyridin-2-ylamine], for which the figures for the IC50 on LRRK2 G2019S and on LRRK2 WT were 380 nM and 2200 nM, respectively.
For `Nc1ncc(-c2ccc(CN3CCOCC3)cc2)cc1-c1nnc(C2CC2)o1` [Example 6, 3-(5-Cyclopropyl-[1,3,4]oxadiazol-2-yl)-5-(4-morpholin-4-ylmethyl-phenyl)-pyridin-2-ylamine], the IC50 at LRRK2 G2019S worked out at 390 nM; on LRRK2 WT it was 490 nM.
Turning to `COc1cccc(-c2cnc(N)c(-c3nnc(C4CCNCC4)o3)c2)c1` [Example 7, 5-(3-Methoxy-phenyl)-3-(5-piperidin-4-yl-[1,3,4]oxadiazol-2-yl)-pyridin-2-ylamine], the results for the IC50 on LRRK2 G2019S and on LRRK2 WT were 1000 nM and 3300 nM, respectively.
As to `COc1cccc(-c2cnc(N)c(-c3nnc(C4CCN(C)CC4)o3)c2)c1` [Example 8, 5-(3-Methoxy-phenyl)-3-[5-(1-methyl-piperidin-4-yl)-[1,3,4]oxadiazol-2-yl]-pyridin-2-ylamine], the values for the IC50 on LRRK2 G2019S and at LRRK2 WT were 880 nM and 2200 nM, respectively.
On to `CC(C)n1cc(-c2cc(-c3ccc4c(ccn4C)c3)cnc2N)nn1` [Example 9, 3-(1-Isopropyl-1H-[1,2,3]triazol-4-yl)-5-(1-methyl-1H-indol-5-yl)-pyridin-2-ylamine], for which the IC50 at LRRK2 G2019S was determined as 540 nM; on LRRK2 WT it was 550 nM.
For `CC(C)n1cc(-c2cc(-c3ccc4c(c3)CCN4C)cnc2N)nn1` [Example 10, 3-(1-Isopropyl-1H-[1,2,3]triazol-4-yl)-5-(1-methyl-2,3-dihydro-1H-indol-5-yl)-pyridin-2-ylamine], in that order: 350 nM and 620 nM.
As for `CC(C)n1cc(-c2nc(-c3ccc4c(c3)CCN4C)cnc2N)nn1` [Example 11, 3-(1-Isopropyl-1H-[1,2,3]triazol-4-yl)-5-(1-methyl-2,3-dihydro-1H-indol-5-yl)-pyrazin-2-ylamine], the IC50 came to 340 nM on LRRK2 G2019S and 570 nM on LRRK2 WT.
Take `CC(C)n1cc(-c2cc(-c3ccc(CN4CCOCC4)cc3)cnc2N)nn1` [Example 12, 3-(1-Isopropyl-H-[1,2,3]triazol-4-yl)-5-(4-morpholin-4-ylmethyl-phenyl)-pyridin-2-ylamine]: the IC50 worked out at 160 nM at LRRK2 G2019S and 300 nM on LRRK2 WT.
With `CC(C)n1cc(-c2cc(-c3ccc(N4CCOCC4)cc3)cnc2N)nn1` [Example 13, 3-(1-Isopropyl-1H-[1,2,3]triazol-4-yl)-5-(4-morpholin-4-yl-phenyl)-pyridin-2-ylamine], the figures for the IC50 at LRRK2 G2019S and at LRRK2 WT were 280 nM and 340 nM, respectively.
For the molecule `CC(C)n1cc(-c2cc(-c3ccc(CCN4CCOCC4)cc3)cnc2N)nn1` [Example 14, 3-(1-Isopropyl-1H-[1,2,3]triazol-4-yl)-5-[4-(2-morpholin-4-yl-ethyl)-phenyl]-pyridin-2-ylamine], the IC50 at LRRK2 G2019S stood at 340 nM; at LRRK2 WT it was 600 nM.
On to `CC(C)n1cc(-c2cc(-c3ccc(CN4CCOCC4)c(F)c3)cnc2N)nn1` [Example 15, 5-(3-fluoro-4-(morpholinomethyl)phenyl)-3-(1-isopropyl-1H-1,2,3-triazol-4-yl)pyridin-2-amine], for which the IC50 turned out to be 370 nM on LRRK2 G2019S and 200 nM on LRRK2 WT.
For `CC(C)n1cc(-c2cc(-c3ccc(C(=O)N4CCOCC4)c(F)c3)cnc2N)nn1` [Example 16, (4-(6-amino-5-(1-isopropyl-1H-1,2,3-triazol-4-yl)pyridin-3-yl)-2-fluorophenyl)(morpholino)methanone], the concentration for half-maximal inhibition (IC50) at LRRK2 G2019S was found to be 510 nM; on LRRK2 WT, 580 nM.
Turning to `COc1cc(-c2cnc(N)c(-c3cn(C(C)C)nn3)c2)ccc1C(=O)N1CCOCC1` [Example 17, [4-[6-amino-5-(1-isopropyltriazol-4-yl)-3-pyridyl]-2-methoxy-phenyl]-morpholino-methanone], the IC50 amounted to 95 nM at LRRK2 G2019S and 91 nM at LRRK2 WT.
As for `COc1cc(-c2cnc(N)c(-c3cn(C(C)C)nn3)c2)ccc1CN1CCOCC1` [Example 18, 3-(1-isopropyltriazol-4-yl)-5-[3-methoxy-4-(morpholinomethyl)phenyl]pyridin-2-amine], the IC50 at LRRK2 G2019S was determined as 86 nM; at LRRK2 WT, 93 nM.
Take `CC(C)n1cc(-c2cc(-c3ccc(F)c(CN4CCOCC4)c3)cnc2N)nn1` [Example 19, 5-[4-fluoro-3-(morpholinomethyl)phenyl]-3-(1-isopropyltriazol-4-yl)pyridin-2-amine]: the IC50 on LRRK2 G2019S was found to be 880 nM; on LRRK2 WT, 1000 nM.
For `Cc1cc(-c2cnc(N)c(-c3cn(C(C)C)nn3)c2)ccc1C(=O)N1CCOCC1` [Example 20, [4-[6-amino-5-(1-isopropyltriazol-4-yl)-3-pyridyl]-2-methyl-phenyl]-morpholino-methanone], in that order: 110 nM and 99 nM.
With `Cc1cc(-c2cnc(N)c(-c3cn(C(C)C)nn3)c2)ccc1CN1CCOCC1` [Example 21], the results for the IC50 at LRRK2 G2019S and on LRRK2 WT were 240 nM and 260 nM, respectively.
For `CC(C)n1cc(-c2cc(-c3ccc(C(=O)N4CCOCC4)c(Cl)c3)cnc2N)nn1` [Example 22, [4-[6-amino-5-(1-isopropyltriazol-4-yl)-3-pyridyl]-2-chloro-phenyl]-morpholino-methanone], the IC50 on LRRK2 G2019S and at LRRK2 WT was 290 nM in each case.
Consider `CC(C)n1cc(-c2cc(-c3ccc(CN4CCOCC4)c(Cl)c3)cnc2N)nn1` [Example 23, 5-[3-Chloro-4-(morpholinomethyl)phenyl]-3-(1-isopropyltriazol-4-yl)pyridin-2-amine], for which the IC50 at LRRK2 G2019S came out at 220 nM; on LRRK2 WT it was 320 nM.
For `CC(C)n1cc(-c2cc(-c3cccc(CN4CCOCC4)c3)cnc2N)nn1` [Example 24, 3-(1-Isopropyltriazol-4-yl)-5-[3-(morpholinomethyl)phenyl]pyridin-2-amine], the 50% inhibitory concentration (IC50) worked out at 500 nM at LRRK2 G2019S and 370 nM on LRRK2 WT.
As to `CC(C)n1cc(-c2cc(-c3cccc(C(=O)N4CCOCC4)c3)cnc2N)nn1` [Example 25, [3-[6-Amino-5-(1-isopropyltriazol-4-yl)-3-pyridyl]phenyl]-morpholino-methanone], the figures for the IC50 on LRRK2 G2019S and on LRRK2 WT were 950 nM and 650 nM, respectively.
Turning to `CC(C)n1cc(-c2cc(-c3cc(Cl)cc(C(=O)N4CCOCC4)c3)cnc2N)nn1` [Example 26, [3-[6-Amino-5-(1-isopropyltriazol-4-yl)-3-pyridyl]-5-chloro-phenyl]-morpholino-methanone], the IC50 at LRRK2 G2019S came out at 690 nM; on LRRK2 WT, 490 nM.
As to `CC(C)n1cc(-c2cc(-c3ccc(C(=O)N4CCOCC4)cc3)cnc2N)nn1` [Example 28, [4-[6-Amino-5-(1-isopropyltriazol-4-yl)-3-pyridyl]phenyl]-morpholino-methanone], the IC50 was found to be 430 nM at LRRK2 G2019S and 370 nM at LRRK2 WT.
As for `CC(C)n1cc(-c2cc(-c3ccc(CC(=O)N4CCOCC4)cc3)cnc2N)nn1` [Example 30, 2-[4-[6-amino-5-(1-isopropyltriazol-4-yl)-3-pyridyl]phenyl]-1-morpholino-ethanone], the concentration for half-maximal inhibition (IC50) at LRRK2 G2019S stood at 520 nM; on LRRK2 WT it was 670 nM.

Values taken from patent publication US9321748B2, “Aminopyridine derived compounds as LRRK2 inhibitors” (H. Lundbeck A/S, priority 2013, dated 2016).
